{"source": "paper PMC7238036", "about": "“An Interspecies Molecular and Functional Study of Organic Cation Transporters at the Blood-Brain Barrier: From Rodents to Humans” (Pharmaceutics, 2020)", "key": {"OCT1 and/or OCT2": {"tested_on": "OCT1 and/or OCT2", "design": "method as in PMID 20477935", "settings": "cited from earlier work"}, "BBB": {"tested_on": "BBB", "settings": "cited from earlier work"}, "[1]": {"tested_on": "primary human brain microvascular endothelial cells (BMVECs)", "experimental": "BMVECs were obtained from isolated human brain microvessels and cultured in petri dishes in the presence of puromycin (P0), to avoid contamination from other cell types. BMVECs were later used in astrocyte-conditioned culture media for protein extraction, or for the establishment of a human BBB model to conduct permeability assays.\nAfter BMVECs amplification, cells were seeded on inserts (Transwell, Corning, ThermoFisher, Les Ulis, France). […] Permeability studies using radiolabeled [^3H]-L-Phenylalanine (~4 nM) or [^3H]-MPP^+ (~6 nM) were performed on BMVECs once the establishment of a good BBB model was verified."}}, "data": [{"smiles": "CN1CC=C(c2ccccc2)CC1", "note": "[MPTP, 1-methyl-4-phenyl-1,2,3,6-tetrahydropyridine]", "values": [{"measurement": "share of MPTP brain uptake accounted for by OCT1 and/or OCT2", "setting": "OCT1 and/or OCT2", "result": "more than 90%"}]}, {"smiles": "CC[N+](CC)(CC)CC", "note": "[TEA, Tetraethylammonium]", "values": [{"measurement": "effect of co-perfused inhibitor on [3H]-MPP+ brain extraction/clearance", "setting": "luminal BBB; TEA 30 mM co-perfusion, all rat and mouse strains tested", "result": "remained unaltered"}, {"measurement": "modification of [14C]-TEA brain transport", "setting": "BBB; FVB Oct1−/− mice", "result": "no modification"}, {"measurement": "effect of inhibitor on [3H]-MPP+ uptake, apical to basolateral", "setting": "[1]; TEA 2 mM, [3H]-MPP+ ~6 nM, OCT1-3/MATE function", "result": "did not produce any significant decrease"}]}, {"smiles": "C[n+]1ccc(-c2ccccc2)cc1", "note": "[[^3H]-MPP^+, 1-methyl-4-phenylpyridinium]", "values": [{"measurement": "differences in basal [3H]-MPP+ brain transport between the selected mouse strains", "setting": "luminal BBB; 2-month old mice, six strains", "result": "not evidenced"}, {"measurement": "modification of [3H]-MPP+ brain transport", "setting": "BBB; FVB (wild-type, Oct1/2−/−, Oct3−/−) and Swiss mice (+/- TEA)", "result": "no modification"}]}, {"smiles": "N[C@@H](Cc1c[nH]c2ccccc12)C(=O)O", "note": "[tryptophan]", "values": [{"measurement": "effect of inhibitor on [3H]-L-phenylalanine uptake, apical to basolateral (SLC7A5)", "setting": "[1]; tryptophan 5 mM, [3H]-L-phenylalanine ~4 nM, n = 3, p < 0.05", "result": "significant decrease"}]}]}
